Values after ≈ are worked out from the molar mass of the structure shown. Where a name gives a salt, the structure may show the parent alone. Each block holds one molecule with its values, some of them ahead of it.
Legend:
Assay type in all cases: physicochemical
[1] = Kinetic solubility in water; conditions: 37° C.; for pH of supernatant: water (native pH 7.6)
Method: (§1) Kinetic solubility testing was conducted as follows: About 40-55 mg material was weighed into a 5-mL EP pipe. 4 mL of water/bio-relevant media (SGF, FaSSIF, or FeSSIF) was added into the corresponding sample pipe (drug loading: ˜10 mg/mL calculated as freebase). The pipes were capped tightly and the material was verified to be in contact with the media. The sample vials were placed on a roller and start rolling at 37° C. (rate: 25 r/min). Samples were taken at 1, 2, 4, 24 h. For each time point, 1.0 mL of suspension was transferred into a 2-mL centrifuge tube and the samples were centrifuged. The supernatant was filtered via 0.45 μm PTFE membrane and solubility and pH were measured. An XRPD test on residual solids was conducted.

[2] = Kinetic solubility in FaSSIF; conditions: for Solubility (mg/mL) 1 h / Solubility (mg/mL) 2 h / Solubility (mg/mL) 4 h / Solubility (mg/mL) 24 h: 37° C.; for Solubility (mg/mL) 1 h: drug loading ~10 mg/mL as freebase; for pH 1 h / pH 2 h / pH 4 h / pH 24 h: supernatant, FaSSIF (native pH 6.5)
Method: as §1

[3] = Kinetic solubility in FeSSIF; conditions: for Solubility (mg/mL) 1 h / Solubility (mg/mL) 2 h / Solubility (mg/mL) 4 h / Solubility (mg/mL) 24 h: 37° C.; for Solubility (mg/mL) 1 h: drug loading ~10 mg/mL as freebase; for Final Form: XRPD of residual solids; for Solubility (mg/mL) 1 h / Final Form / pH 1 h: 1 h; for Solubility (mg/mL) 2 h / Final Form / pH 2 h: 2 h; for Solubility (mg/mL) 4 h / Final Form / pH 4 h: 4 h; for pH 1 h / pH 2 h / pH 4 h / pH 24 h: supernatant
Method: as §1

[4] = Kinetic solubility in SGF; conditions: for Solubility (mg/mL) 1 h / Solubility (mg/mL) 2 h / Solubility (mg/mL) 4 h / Solubility (mg/mL) 24 h: SGF, 37° C.; for Solubility (mg/mL) 1 h: drug loading ~10 mg/mL as freebase; for pH 1 h / pH 2 h / pH 4 h / pH 24 h: supernatant, SGF (native pH 1.8)
Method: as §1

[5] = Gravimetric vapor sorption (GVS) hygroscopicity; conditions: for Crystalline form by XRPD post GVS analysis: exposure to humidity 0 to about 90% RH, about 25° C.
Method: Sorption isotherms were obtained using a Hiden Isochema moisture sorption analyser (model IGAsorp), controlled by IGAsorp Systems Software v6.50.48. The sample was maintained at a constant temperature (25° C.) by the instrument controls. The humidity was controlled by mixing streams of dry and wet nitrogen, with a total flow of 250 mL·min^−1. The instrument was verified for relative humidity content by measuring three calibrated Rotronic salt solutions (10-50-88%). The weight change of the sample was monitored as a function of humidity by a microbalance (accuracy+/−0.005 mg). A defined amount of sample was placed in a tared mesh stainless steel basket under ambient conditions. A full experimental cycle consisted of two scans (sorption and desorption) at a constant temperature (25° C.) and 10% RH intervals over a 10-90% range (90 minutes for each humidity level).
The hygroscopicity of the esylate, mesylate, HCl, and sulfate salts/co-crystals of Compound I formed via the first scale up process was analyzed. All hygroscopicity experiments covered a wide range of humidity (0 to about 90% relative humidity) and were performed at about 25° C. to assess behavior.

[6] = Solubility of Compound I Form I in various solvents
[7] = 1 h, listed as Naphthalene disulfonate Type A
[8] = 2 h, listed as Naphthalene disulfonate Type A
[9] = 4 h, listed as Naphthalene disulfonate Type A
[10] = 24 h, listed as Naphthalene disulfonate Type A
[11] = listed as Naphthalene disulfonate Type A
[12] = 24 h, listed as Mesylate Type A

SMILES: CCS(=O)(=O)N1CCN(c2ccc(Nc3ncc(C(N)=O)c(NC4CC4)n3)cc2)CC1 [4-(cyclopropylamino)-2-(4-(4-(ethylsulfonyl)piperazin-1-yl)phenylamino)pyrimidine-5-carboxamide]
pH of supernatant [1, 7]: 2.8
pH of supernatant [1, 8]: 2.6
pH of supernatant [1, 9]: 2.5
pH of supernatant [1, 10]: 2.4
Kinetic solubility ([1]; water, 1 h, listed as Naphthalene disulfonate Type A): 1.4 µg/mL
Kinetic solubility ([1]; water, 2 h, listed as Naphthalene disulfonate Type A): 2.5 µg/mL
Kinetic solubility ([1]; water, 4 h, listed as Naphthalene disulfonate Type A): 1.5 µg/mL
Kinetic solubility ([1]; water, 24 h, listed as Naphthalene disulfonate Type A): 1.6 µg/mL
Solubility (mg/mL) 1 h ([2]; FaSSIF, 1 h, listed as Naphthalene disulfonate Type A): 0.0035 mg/mL (≈ 7.86 µM)
Solubility (mg/mL) 2 h ([2]; FaSSIF, 2 h, listed as Naphthalene disulfonate Type A): 0.0037 mg/mL (≈ 8.3 µM)
Solubility (mg/mL) 4 h ([2]; FaSSIF, 4 h, listed as Naphthalene disulfonate Type A): 0.0030 mg/mL (≈ 6.73 µM)
Solubility (mg/mL) 24 h ([2]; FaSSIF, 24 h, listed as Naphthalene disulfonate Type A): 0.0027 mg/mL (≈ 6.06 µM)
Final Form ([2]; XRPD of residual solids, FaSSIF, 1 h, 2 h, 4 h, 24 h, listed as Naphthalene disulfonate Type A): New form X
pH 1 h [2, 7]: 2.8
pH 2 h [2, 8]: 2.7
pH 4 h [2, 9]: 2.6
pH 24 h [2, 10]: 2.5
Solubility (mg/mL) 1 h [3, 11]: 0.0088 mg/mL (≈ 19.8 µM)
Solubility (mg/mL) 2 h [3, 11]: 0.0079 mg/mL (≈ 17.7 µM)
Solubility (mg/mL) 4 h [3, 11]: 0.0069 mg/mL (≈ 15.5 µM)
Solubility (mg/mL) 24 h [3, 10]: 0.0059 mg/mL (≈ 13.2 µM)
Final Form [3, 10]: New form X
pH 1 h [3, 11]: 4.6
pH 2 h [3, 11]: 4.6
pH 4 h [3, 11]: 4.6
pH 24 h [3, 10]: 4.6
Solubility (mg/mL) 1 h [4, 11]: 0.019 mg/mL (≈ 42.6 µM)
Solubility (mg/mL) 2 h [4, 11]: 0.016 mg/mL (≈ 35.9 µM)
Solubility (mg/mL) 4 h [4, 11]: 0.018 mg/mL (≈ 40.4 µM)
Solubility (mg/mL) 24 h [4, 11]: 0.016 mg/mL (≈ 35.9 µM)
pH 1 h [4, 11]: 2.0
pH 2 h [4, 11]: 1.9
pH 4 h [4, 11]: 2.0
pH 24 h [4, 11]: 1.8

SMILES: CCS(=O)(=O)N1CCN(c2ccc(Nc3ncc(C(N)=O)c(NC4CC4)n3)cc2)CC1 [Compound I esylate Form I, 4-(cyclopropylamino)-2-(4-(4-(ethylsulfonyl)piperazin-1-yl)phenylamino)pyrimidine-5-carboxamide]
GVS hygroscopicity / moisture uptake ([5]; between 0 and about 60% RH, 25° C.): not subject to moisture uptake
GVS weight uptake ([5]; between about 60% to about 90% RH): RH; about 5 mg
GVS mass lost relative to the input weight ([5]; dried to about 10% RH): about 4.6%
Crystalline form by XRPD post GVS analysis [5]: loss of crystallinity
Deliquescence in GVS ([5]; large water uptake about 60 to about 90% RH): deliquescence did not result
GVS weight change (sudden increase in weight) ([5]; sorption above about 60% RH): ~35%

SMILES: CCS(=O)(=O)N1CCN(c2ccc(Nc3ncc(C(N)=O)c(NC4CC4)n3)cc2)CC1 [Compound I Form I, 4-(cyclopropylamino)-2-(4-(4-(ethylsulfonyl)piperazin-1-yl)phenylamino)pyrimidine-5-carboxamide]
Solubility of Compound I Form I (Observations) ([6]; 25 mg/1 mL Acetone): <5 mg
Solubility of Compound I Form I (Observations) ([6]; 25 mg/1 mL Acetonitrile): <5 mg
Solubility of Compound I Form I (Observations) ([6]; 25 mg/1 mL DCM): about 10 mg
Solubility of Compound I Form I (Observations) ([6]; 25 mg/1 mL EtOAc): <5 mg
Solubility of Compound I Form I (Observations) ([6]; 25 mg/1 mL Heptane): <5 mg
Solubility of Compound I Form I (Observations) ([6]; 25 mg/1 mL IPA): <5 mg
Solubility of Compound I Form I (Observations) ([6]; 25 mg/1 mL MeOH): <5 mg
Solubility of Compound I Form I (Observations) ([6]; 25 mg/1 mL TBME): <5 mg
Solubility of Compound I Form I (Observations) ([6]; 25 mg/1 mL THF): <5 mg
Solubility of Compound I Form I (Observations) ([6]; 25 mg/1 mL Toluene): about 10 mg

The remaining lines, values ahead:

pH of supernatant ([1]; 1 h, listed as Mesylate Type A): 1.9
pH of supernatant ([1]; 2 h, listed as Mesylate Type A): 1.9
pH of supernatant ([1]; 4 h, listed as Mesylate Type A): 2.2
pH of supernatant [1, 12]: 2.0
Final Form of residual solids (XRPD) ([1]; water, 1 h, 2 h, 4 h, 24 h, listed as Mesylate Type A): Freebase Form II
Kinetic solubility ([1]; water, 1 h, listed as Mesylate Type A): 1400 µg/mL
Kinetic solubility ([1]; water, 2 h, listed as Mesylate Type A): 1300 µg/mL
Kinetic solubility ([1]; water, 4 h, listed as Mesylate Type A): 1300 µg/mL
Kinetic solubility ([1]; water, 24 h, listed as Mesylate Type A): 1300 µg/mL
Solubility (mg/mL) 1 h ([2]; FaSSIF, 1 h, listed as Mesylate Type A): 0.062 mg/mL
Solubility (mg/mL) 2 h ([2]; FaSSIF, 2 h, listed as Mesylate Type A): 0.055 mg/mL
Solubility (mg/mL) 4 h ([2]; FaSSIF, 4 h, listed as Mesylate Type A): 0.039 mg/mL
Solubility (mg/mL) 24 h ([2]; FaSSIF, 24 h, listed as Mesylate Type A): 0.020 mg/mL
pH 1 h ([2]; 1 h, listed as Mesylate Type A): 4.1
pH 2 h ([2]; 2 h, listed as Mesylate Type A): 3.7
pH 4 h ([2]; 4 h, listed as Mesylate Type A): 3.6
pH 24 h [2, 12]: 4.0
Solubility (mg/mL) 1 h ([3]; listed as Mesylate Type A): 0.023 mg/mL
Solubility (mg/mL) 2 h ([3]; listed as Mesylate Type A): 0.020 mg/mL
Solubility (mg/mL) 4 h ([3]; listed as Mesylate Type A): 0.0084 mg/mL
Solubility (mg/mL) 24 h [3, 12]: 0.0083 mg/mL
Final Form ([3]; 24 h (merged cell), listed as Mesylate Type A): Freebase Form II
pH 1 h ([3]; listed as Mesylate Type A): 4.7
pH 2 h ([3]; listed as Mesylate Type A): 4.5
pH 4 h ([3]; listed as Mesylate Type A): 4.6
pH 24 h [3, 12]: 4.6
Solubility (mg/mL) 1 h ([4]; listed as Mesylate Type A): 0.081 mg/mL
Solubility (mg/mL) 2 h ([4]; listed as Mesylate Type A): 0.096 mg/mL
Solubility (mg/mL) 4 h ([4]; listed as Mesylate Type A): 0.080 mg/mL
Solubility (mg/mL) 24 h ([4]; listed as Mesylate Type A): 0.076 mg/mL
pH 1 h ([4]; listed as Mesylate Type A): 1.9
pH 2 h ([4]; listed as Mesylate Type A): 2.0
pH 4 h ([4]; listed as Mesylate Type A): 2.0
pH 24 h ([4]; listed as Mesylate Type A): 1.9
SMILES: CCS(=O)(=O)N1CCN(c2ccc(Nc3ncc(C(N)=O)c(NC4CC4)n3)cc2)CC1 [Compound I mesylate Type A, 4-(cyclopropylamino)-2-(4-(4-(ethylsulfonyl)piperazin-1-yl)phenylamino)pyrimidine-5-carboxamide]

GVS water absorbed ([5]; 25° C., first scale up material, listed as Comp. I Mesylate Form II): About 12 mg
GVS total mass lost ([5]; desorption): about 2%
Crystalline form by XRPD post GVS analysis [5]: does not result in a form change
GVS total weight uptake from the starting point ([5]; sorption, increasing RH): ≤ 1.4%
SMILES: CCS(=O)(=O)N1CCN(c2ccc(Nc3ncc(C(N)=O)c(NC4CC4)n3)cc2)CC1 [Compound I mesylate Form II, 4-(cyclopropylamino)-2-(4-(4-(ethylsulfonyl)piperazin-1-yl)phenylamino)pyrimidine-5-carboxamide]

— US11713309B2, “Solid forms of Cerdulatinib” (Alexion Pharmaceuticals, Inc., priority 2018, dated 2023)
